Laboratory results reported in the supplement of paper PMC4862054.

Experiments:
Assay in all cases: normalised response (% of control), CellTiter-Glo; higher = more viable cells (100 = DMSO, 0 = benzethonium chloride kill control)
Details in all cases: incubation time: 72 h
[1] = tested on: BT-474
Procedure, shortened: (§1)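 A 20 µl suspension of breast cancer cells was seeded into each well of 384-well plates containing compound at 5 concentrations in 10-fold steps over a compound-specific 10,000-fold range. After 72 h incubation, CellTox Green fluorescence (485/520 nm) was read first, and CellTiter-Glo luminescence was read after 10 min at room temperature. Each plate was normalised against 0.1 % DMSO (100) and a positive kill control (0), and each value is the normalised signal at one concentration.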

[2] = tested on: BT-549
Procedure, shortened: as §1

[3] = tested on: CAL-120
Procedure, shortened: as §1

[4] = tested on: CAL-148
Procedure, shortened: as §1

[5] = tested on: CAL-51
Procedure, shortened: as §1

[6] = tested on: CAL-85-1
Procedure, shortened: as §1

[7] = tested on: DU-4475
Procedure, shortened: as §1

[8] = tested on: HCC1143
Procedure, shortened: as §1

[9] = tested on: HCC1599
Procedure, shortened: as §1

[10] = tested on: HCC1937
Procedure, shortened: as §1

[11] = tested on: HDQ-P1
Procedure, shortened: as §1

[12] = tested on: Hs578T
Procedure, shortened: as §1

[13] = tested on: MCF-10A
Procedure, shortened: as §1

[14] = tested on: MDA-MB-231
Procedure, shortened: as §1

[15] = tested on: MDA-MB-436
Procedure, shortened: as §1

[16] = tested on: MDA-MB-453
Procedure, shortened: as §1

[17] = tested on: MDA-MB-468
Procedure, shortened: as §1

[18] = tested on: MFM-223
Procedure, shortened: as §1

[19] = tested on: SK-BR-3
Procedure, shortened: as §1

SMILES	normalised response [1]	normalised response [2]	normalised response [3]	normalised response [4]	normalised response [5]	normalised response [6]	normalised response [7]	normalised response [8]	normalised response [9]	normalised response [10]	normalised response [11]	normalised response [12]	normalised response [13]	normalised response [14]	normalised response [15]	normalised response [16]	normalised response [17]	normalised response [18]	normalised response [19]
CC1=C2C[C@H]3[C@@H](CC=C4C[C@@H](O)CC[C@@]43C)[C@@H]2CC[C@]12O[C@@H]1C[C@H](C)CN[C@H]1[C@H]2C [Cyclopamine] (10 nM)	104%	95.6%	102%	117%	110%	98%	109%	105%	116%	104%	105%	105%	114%	105%	105%	109%	110%	113%	120%
CC(=O)N(O)CCCCCNC(=O)CCC(=O)N(O)CCCCCNC(=O)CCC(=O)N(O)CCCCCN [Deferoxamine] (1 nM)	94.6%	104%	106%	91.9%	108%	93.2%	95.6%	95.1%	120%	93.7%	105%	100%	99.2%	91.8%	101%	94.8%	91%	94.7%	94.8%
CC(=O)N(O)CCCCCNC(=O)CCC(=O)N(O)CCCCCNC(=O)CCC(=O)N(O)CCCCCN [Deferoxamine] (10 nM)	94.5%	106%	97.4%	88.3%	87.7%	93%	92.3%	102%	110%	101%	105%	97%	91.4%	91.5%	96.3%	90.2%	98.2%	96.9%	99%
CC(=O)O[C@@]12CO[C@@H]1C[C@H](O)[C@@]1(C)C(=O)[C@H](O)C3=C(C)[C@@H](OC(=O)[C@H](O)[C@@H](NC(=O)OC(C)(C)C)c4ccccc4)C[C@@](O)([C@@H](OC(=O)c4ccccc4)[C@H]21)C3(C)C [Docetaxel] (1 nM)	84.2%	60.5%	94.6%	84.6%	115%	79.9%	90.6%	71.5%	97.4%	83.5%	90%	76.6%	73.2%	87.8%	81.5%	104%	50.2%	91.3%	68.5%
C[C@]12CC[C@@H]3c4ccc(OC(=O)N(CCCl)CCCl)cc4CC[C@H]3[C@@H]1CC[C@@H]2O [Estramustine] (1 nM)	95.3%	97%	97.6%	80.3%	118%	95%	89.3%	96.4%	109%	93.1%	100%	95.5%	86.5%	94.7%	106%	94.6%	88.2%	88%	90%
C[C@]12CC[C@@H]3c4ccc(OC(=O)N(CCCl)CCCl)cc4CC[C@H]3[C@@H]1CC[C@@H]2O [Estramustine] (10 nM)	97%	98.6%	103%	84.1%	90.1%	91.2%	91.3%	98.5%	103%	96%	104%	97%	91.1%	95.1%	93.3%	88.8%	97.6%	87.7%	94.9%
C[C@]1(O)C[C@@H](c2nc(-c3ccc4ccc(-c5ccccc5)nc4c3)c3c(N)nccn32)C1 [Linsitinib] (1 nM)	98.2%	92.6%	97.7%	98%	109%	92.8%	98%	91.7%	106%	91.5%	105%	93.2%	89.5%	95.3%	96.4%	90.9%	93.9%	87.5%	91.5%
C[C@]1(O)C[C@@H](c2nc(-c3ccc4ccc(-c5ccccc5)nc4c3)c3c(N)nccn32)C1 [Linsitinib] (10 nM)	93.7%	94.4%	102%	85.6%	92.4%	95%	94.9%	96.1%	78.5%	101%	99%	96.1%	88.9%	94.8%	89.2%	99.3%	90.8%	92.8%	76.1%
CC1(C)CNc2cc(NC(=O)c3cccnc3NCc3ccncc3)ccc21 [Motesanib] (10 nM)	105%	95.3%	97.9%	87.4%	123%	92.9%	99.4%	98.2%	101%	99.6%	93.9%	98.3%	93.9%	91.2%	99.4%	106%	96.8%	93.7%	76.2%
Nc1nc2[nH]cnc2c(=S)[nH]1 [Thioguanine] (10 nM)	93.8%		100%	105%	85.1%	99.4%	98.5%	101%	112%	96.9%	94.6%	102%	98.7%	98.2%	98.8%	87.4%	99.5%	97.2%	
